Measured values reported in US20070110693A1, “COMPOSITIONS CONTAINING PEPTIDE COPPER COMPLEXES AND SOFT TISSUE FILLERS, AND METHODS RELATED THERETO” (PROCYTE CORPORATION, priority 2002, published 2007).

Legend:
collagen synthesis = experiment: Subcutaneous stainless steel chamber implant model: collagen content measured as hydroxyproline (HYP); type: in vivo, rat
Text: (§1) The subcutaneous implantation of stainless steel chambers in rats provides a model for studying the synthesis of extracellular matrix components (collagen and glycosaminoglycan) by providing a recoverable site of new matrix synthesis. The assay involves implanting in each rat, two cylindrical stainless steel chambers (1 cm in diameter×2.5 cm long, 312 SS, 20 mesh, with Teflon end caps), one on each side of the rats' dorsal midline. After allowing for encapsulation of the chambers, both chambers on each rat were injected with 0.2 ml of a solution containing the representative soft tissue filler or saline on day 4 after implantation, and the test peptide copper compound (or saline alone as a control) on days 6, 8, 11, 13, 15, 16, and 18. Chambers were removed from the animals on day 30 after implantation for biochemical analysis.
The chambers were lyophylized and the interior contents removed for biochemical analysis. The biochemical parameters examined include collagen content, the latter being measured as a hydroxyproline (“HYP”) content. The latter, an amino acid specific for collagen, was measured after acid hydrolysis and using a colormetric assay for HYP (see e.g., Bergman, I and Loxley, R., “The Determination of Hydroxyproline in Urine Hydrolysates,” Clin. Chim. Acta. 27: 347-349, 1970). Collagen content was expressed as μg of HYP per chamber or per milligram of protein.
(§2) In this example, hydroxypropyl methyl cellulose was used as the soft tissue filler. A dose of 6 milligrams of the hydroxypropyl methyl cellulose, as a gel, was injected into each of the chambers. Injections of saline served as controls.
(§3) Glycyl-L-histidyl-L-lysine:copper(II) (“GHK-Cu”), was used as the peptide copper complex used. The GHK-Cu was prepared at a molar ratio of 2 moles of peptide to one mole of copper(II), and dissolved in a saline solution at a concentration of 10 milligrams/milliliter. A dose of […] of GHK-Cu was injected for each day of treatment.
(§4) The stimulation of collagen and GAG synthesis by injection of various peptide copper complexes has been determined by methods described in Example 1. The peptide copper complexes used were L-alanyl-L-histidyl-L-lysine:copper(II) (“AHK-Cu”), prepared at a molar ratio of 1 mole of peptide to one mole of copper(II), and glycyl-L-histidyl-L-lysyl-L-valyl-L-phenylalanyl-L-valine:copper(II) (“GHKVFV-Cu”), prepared at a molar ratio of 2 moles of peptide to one mole of copper(II). The peptide copper complexes were dissolved in a saline solution at a concentration of 10 milligrams/milliliter. A dose of 2.4 micromoles of peptide copper complex was injected on each treatment day.
The stimulation of collagen synthesis by injection of various peptide copper complexes has been determined by methods described in Examples 1 and 2. […]

[1] = system: glycosaminoglycan (GAG) synthesis; experiment: Subcutaneous stainless steel chamber implant model: glycosaminoglycan (GAG) content measured as uronic acid (UA); type: in vivo, rat
Text: as §1
The chambers were also analyzed for glycosaminoglycan content, another component of the extracellular matrix or skin. Glycosaminoglycan (“GAG”) content was determined by quantifying the amount of uronic acid (“UA”), a carbohydrate component specific for GAGs. UA was determined by a colorimetric assay, as described using 2-hydroxydiphenyl as a reagent (see, e.g., Vilim, V., “Colorimetric Estimation of Uronic Acids using 2-hydroxydiphenyl as a Reagent,” Biomed. Biochim. Acta. 44 11/12 s: 1717-1720, 1985). GAG content was expressed as μg of UA per chamber.
as §2, §3, §4

[2] = Example 2, 2.4 micromoles of peptide copper complex per treatment day, saline control 60 ± 5
[3] = Example 3, 0.6 mg of peptide copper complex per treatment day, saline control 1838 ± 636

Glycyl-L-histidyl-L-lysine:copper(II) [GHK-Cu]
μg HYP/Chamber Mean ± SEM (collagen synthesis; Example 1, GHK-Cu 0.2 mg per treatment day in combination with soft tissue filler HPMC 6 mg on day 4, chambers removed day 30, saline control 1222 ± 111): 3423 ± 341 μg HYP/Chamber
μg HYP/Chamber Mean ± SEM (collagen synthesis; Example 1, agent alone (GHK-Cu 0.2 mg per treatment day on days 6-18, or HPMC gel 6 mg on day 4), chambers removed day 30, saline control 1222 ± 111): 4226 ± 265 μg HYP/Chamber
μg Uronic Acid/Chamber Mean ± SEM ([1]; Example 1, GHK-Cu 0.2 mg per treatment day in combination with soft tissue filler HPMC 6 mg on day 4, chambers removed day 30, saline control 46.3 ± 5.8): 88.1 ± 5.6 μg Uronic Acid/Chamber
μg Uronic Acid/Chamber Mean ± SEM ([1]; Example 1, agent alone (GHK-Cu 0.2 mg per treatment day on days 6-18, or HPMC gel 6 mg on day 4), chambers removed day 30, saline control 46.3 ± 5.8): 117.3 ± 12.9 μg Uronic Acid/Chamber

L-alanyl-L-histidyl-L-lysine:copper(II) [AHK-Cu]
μg Uronic Acid/Chamber Mean ± SEM [1, 2]: 105 ± 21 μg Uronic Acid/Chamber

glycyl-L-histidyl-L-leucine methyl ester:copper(II) [GHL-Me-Cu]
μg HYP/Chamber Mean ± SEM (collagen synthesis; [3]): 3357 ± 863 μg HYP/Chamber

glycyl-L-histidyl-L-leucine:copper(II) [GHL-Cu]
μg HYP/Chamber Mean ± SEM (collagen synthesis; [3]): 3619 ± 754 μg HYP/Chamber

glycyl-L-histidyl-L-lysyl-L-valyl-L-phenylalanyl-L-valine:copper(II) [GHKVFV-Cu]
μg Uronic Acid/Chamber Mean ± SEM [1, 2]: 79 ± 9 μg Uronic Acid/Chamber
